Test: Human HepG2 cell viability assay in 384 well format
Assay type: toxicity, cell-based
Parameters: dose 125 nL, time 70.5 hour; concentration not given beside the values
Conditions: HepG2 cells, read-out: Inhibition
`Cc1noc(C)c1-c1nc(N(C)CCN(C)C)ncc1-c1cnccn1` showed a cytotoxicity at 70.5 h of -6.02%.
Compound `CN1CCNC(Cc2ccc(-c3cccs3)cc2)C1=O` (stereo not given) has a cytotoxicity at 70.5 h of -6.3%.
Compound `CC(=O)N1CCC(Cc2cnc(-c3c(C)n[nH]c3C)cn2)CC1` has a cytotoxicity at 70.5 h of 18.9%.
`CNC(=O)c1cn[nH]c1C1CCCN1C(=O)c1cccnc1` (stereo not given) showed a cytotoxicity at 70.5 h of -4.17%.
With `c1ccc(CO[C@H]2C[C@@H]3CN(Cc4cncnc4)C[C@@H]3C2)cc1` the cytotoxicity at 70.5 h was -5.58%.
For `Cc1cc(C(N)=O)nc(C2(C)CCCN2Cc2cnn(C)c2)n1` (stereo not given), the cytotoxicity at 70.5 h was -4.52%.
For `Cc1nc(CN2CCCC(c3nc(C)n4c(C)c(C)sc34)C2)co1` (stereo not given), the cytotoxicity at 70.5 h was 21%.
`COCCc1ncc(CNC2(c3ccc(Cl)cc3Cl)CC2)cn1` showed a cytotoxicity at 70.5 h of -1.55%.
Compound `Cc1nc(C)c(C(=O)N2CCCC(c3cnccn3)C2)s1` (stereo not given) has a cytotoxicity at 70.5 h of -2.44%.
With `CC(C)CC(=O)N1CCC(c2nnc3n2CCCCC3)CC1` the cytotoxicity at 70.5 h was -0.981%.
Compound `Cc1ccc(CN(C)C(=O)NCC(C)(C)S(C)(=O)=O)s1` has a cytotoxicity at 70.5 h of -2.7%.
`CC(C)c1ncc2c(n1)CN(CC1CCCCO1)CC2` (stereo not given) gave a cytotoxicity at 70.5 h of -2.55%.
Work on `Cc1cccc(C(=O)N(CCCO)S(=O)(=O)c2cccs2)c1` yielded a cytotoxicity at 70.5 h of -0.969%.
With `CCC1CCCCN1S(=O)(=O)c1c(C)noc1C` (stereo not given) the cytotoxicity at 70.5 h was -7.69%.
`Cc1ccnc(NC(=O)C2CCCO2)c1` (stereo not given) showed a cytotoxicity at 70.5 h of 6.19%.
For `CCNC(=O)CN(CC)C(=O)c1cccc(Nc2cnn(C)c2)c1`, the cytotoxicity at 70.5 h was 6.01%.
In the case of `COC1CCN(C(=O)c2ccc3ncsc3c2)CC1`, the cytotoxicity at 70.5 h is reported as -2.33%.
For `CCn1cnnc1CNC(=O)NC(c1ccc(OC)cc1)C1CC1` (stereo not given), the cytotoxicity at 70.5 h was -6.45%.
With `CCC(NC(=O)NCc1nncn1CC)c1ccc(OC)cc1` (stereo not given) the cytotoxicity at 70.5 h was -9.27%.
`O=c1cc(CN(CCO)C2CC2)nc2ccc(Br)cn12` gave a cytotoxicity at 70.5 h of -4.99%.
With `CN(CCO)Cc1cc(=O)n2cc(Br)ccc2n1` the cytotoxicity at 70.5 h was -1.02%.
Compound `CCN(Cc1cc(=O)n2cc(Br)ccc2n1)C1CC1` has a cytotoxicity at 70.5 h of -7.36%.
Compound `O=C(Cc1cccs1)NCCNc1nccc(C(F)(F)F)n1` has a cytotoxicity at 70.5 h of -3.67%.
Work on `CCCS(=O)(=O)N1CCCC(c2nc(-c3ccccc3)c[nH]2)C1` (stereo not given) yielded a cytotoxicity at 70.5 h of -2.79%.
Compound `CC(C)(C)C(=O)NCCC(=O)Nc1cc(C#N)cn1C(C)(C)C` has a cytotoxicity at 70.5 h of -4.11%.
For `O=C(O)c1ccc(-c2cscn2)cc1`, the cytotoxicity at 70.5 h was -6.68%.
`CC(C)COc1cncc(NCc2nnc3ccccn23)n1` gave a cytotoxicity at 70.5 h of -3.83%.
`CC(C)(C)n1cc(C#N)cc1NC(=O)CCS(=O)(=O)C1CCCC1` showed a cytotoxicity at 70.5 h of 0.563%.
`CCSCc1ccnc(NC(=O)C2CCOC2)c1` (stereo not given) gave a cytotoxicity at 70.5 h of -4%.
Work on `COc1ccncc1NCc1ccsc1` yielded a cytotoxicity at 70.5 h of -2.45%.
With `CC(Cc1cccc(Cl)c1)NC(=O)NCc1ncnn1C` (stereo not given) the cytotoxicity at 70.5 h was 11.1%.
In the case of `CN(C)C(=O)CCC[S+]([O-])Cc1cc(Cl)ccc1Cl` (stereo not given), the cytotoxicity at 70.5 h is reported as -3.61%.
Compound `CN(C)C(=O)CCC[S+]([O-])Cc1ccc(Cl)c(Cl)c1` (stereo not given) has a cytotoxicity at 70.5 h of -3.04%.
Work on `CN(C)C(=O)CCC[S+]([O-])Cc1ccc(F)c(F)c1` (stereo not given) yielded a cytotoxicity at 70.5 h of 13.1%.
Work on `COc1cc(CNc2nc(C(F)(F)F)no2)cc(OC)c1OC` yielded a cytotoxicity at 70.5 h of -4.05%.
With `O=S(=O)(c1ccc(Cl)s1)N1CCCC(c2ncc[nH]2)C1` (stereo not given) the cytotoxicity at 70.5 h was -1.59%.
`CCc1ccc(S(=O)(=O)N2CCCC(c3ncc[nH]3)C2)s1` (stereo not given) showed a cytotoxicity at 70.5 h of -4.54%.
For `COc1cc(CO)ccc1OCc1nc(C(C)C)no1`, the cytotoxicity at 70.5 h was -3.56%.
`CCSCc1ccnc(NC(=O)C2CCCO2)c1` (stereo not given) showed a cytotoxicity at 70.5 h of -2.71%.
Compound `COC(=O)NCC(=O)N1CCCC1c1nc(-c2ccccc2F)c[nH]1` (stereo not given) has a cytotoxicity at 70.5 h of -3.18%.
In the case of `Cc1ccccc1C(C)NC(=O)CN1CCN(Cc2ccc(Br)s2)CC1` (stereo not given), the cytotoxicity at 70.5 h is reported as 18.7%.
For `NC(=O)CS(=O)(=O)Cc1ccc(F)cc1`, the cytotoxicity at 70.5 h was -1.66%.
`O=C(CCC1CCCC1)NCc1nnc2ccccn12` showed a cytotoxicity at 70.5 h of -10.1%.
With `O=C1CC(N(C(=O)Cc2csc(-c3ccccc3)n2)C2CC2)C(=O)N1` (stereo not given) the cytotoxicity at 70.5 h was -1.89%.
For `COC(=O)c1cccc(S(=O)(=O)Nc2ncc(C)s2)c1`, the cytotoxicity at 70.5 h was 0.827%.
In the case of `N#CCCN(CCC#N)C(=O)COC1CCCCC1`, the cytotoxicity at 70.5 h is reported as -6.88%.
`Cc1nc2cc(=O)[nH]n2c(C)c1CNC(=O)C(C)(C)c1ccccc1` gave a cytotoxicity at 70.5 h of -1.88%.
`Cc1ccc(CC(=O)NCC(O)c2ccc(Cl)cc2Cl)cn1` (stereo not given) gave a cytotoxicity at 70.5 h of 3.42%.
`O=C(CCC1CCCC1)N1CCC(O)(C(F)(F)F)C1` (stereo not given) gave a cytotoxicity at 70.5 h of -0.869%.
Compound `CSCC(C)C(=O)NCc1c(C)nc2cc(=O)[nH]n2c1C` (stereo not given) has a cytotoxicity at 70.5 h of 7.35%.
In the case of `CC(C)Cn1cnc(S(=O)(=O)Nc2cccnc2-n2cccn2)c1`, the cytotoxicity at 70.5 h is reported as -1.98%.
Work on `O=C(NC(c1ccc(Cl)cc1)C(F)(F)F)c1nc(=O)[nH][nH]1` (stereo not given) yielded a cytotoxicity at 70.5 h of 29.9%.
`Cn1c(N)nnc1SC1CCCN(c2ccccc2)C1=O` (stereo not given) gave a cytotoxicity at 70.5 h of -1%.
In the case of `CCN(C(=O)Cc1ccc(NCc2ncc[nH]2)cc1)c1ccccc1`, the cytotoxicity at 70.5 h is reported as -5.61%.
For `O=C(NC(CC(F)(F)F)c1ccc(Cl)cc1)c1nc(=O)[nH][nH]1` (stereo not given), the cytotoxicity at 70.5 h was 0.759%.
`CCn1cc(S(=O)(=O)Nc2cccnc2-n2cccn2)nc1C` showed a cytotoxicity at 70.5 h of -2.93%.
Work on `COCC(O)CN1CCC(NC(=O)c2cccc(C)c2)CC1` (stereo not given) yielded a cytotoxicity at 70.5 h of -2.52%.
In the case of `COc1cc(F)cc(CNC(=O)Nc2ccn(CC(F)F)n2)c1`, the cytotoxicity at 70.5 h is reported as -2.34%.
`CCOc1ccc(NC(=O)c2oc(CC)cc2C)cc1CO` gave a cytotoxicity at 70.5 h of -3.11%.
For `c1csc(-c2noc(CCCNC3CCc4ncnn4C3)n2)c1` (stereo not given), the cytotoxicity at 70.5 h was -4.28%.
Compound `COC(=O)c1cccc(C(=O)N(C)Cc2cccc(F)c2)c1` has a cytotoxicity at 70.5 h of 5.14%.
With `Cc1ncc(C(=O)NCCNc2ncccn2)s1` the cytotoxicity at 70.5 h was -2.18%.
Work on `Cc1cc(N(C)C)nc(N2CCCC2c2cc(C)on2)n1` (stereo not given) yielded a cytotoxicity at 70.5 h of -1.73%.
With `COc1cccc(SCCCn2cnc3c(N)ncnc32)c1` the cytotoxicity at 70.5 h was 6.56%.
`Cc1nc(CN2CCN(c3ccc(Cl)cn3)CC2)no1` gave a cytotoxicity at 70.5 h of -6.61%.
`CN(C)CC1CCCCN1C(=O)c1ccc(N2CCOCC2)cc1` (stereo not given) showed a cytotoxicity at 70.5 h of 0.118%.
`CCCN(Cc1cnn(C)c1)S(=O)(=O)c1cccc(F)c1C#N` showed a cytotoxicity at 70.5 h of -2.96%.
For `CCOc1cccc(NC(=O)c2cc[nH]n2)n1`, the cytotoxicity at 70.5 h was -3.18%.
For `CCOc1cccc(NC(=O)c2cnc(C)cn2)n1`, the cytotoxicity at 70.5 h was -3.9%.
With `CNC(=O)CN1CCC(CN(C)Cc2ccncc2Cl)CC1` the cytotoxicity at 70.5 h was -3.24%.
`Cc1ccc(S(N)(=O)=O)cc1C(=O)NC1CCN(C2CC2)CC1` showed a cytotoxicity at 70.5 h of 21.9%.
`O=c1[nH]cnc2c1CCN(S(=O)(=O)c1cccc(OC(F)(F)F)c1)C2` showed a cytotoxicity at 70.5 h of -5.76%.
With `CC(=O)c1cc(Br)cc(F)c1OCC(=O)NC1CC1` the cytotoxicity at 70.5 h was 0.481%.
Work on `CCC1CCCCCN1C(=O)c1ccc(N2CCC(O)CC2)cc1` (stereo not given) yielded a cytotoxicity at 70.5 h of -1.83%.
For `Cc1cc(C)nc(NC2CCC(=O)N(C)C2)n1` (stereo not given), the cytotoxicity at 70.5 h was -8.23%.
`COCc1cc(N(C)Cc2ncnn2C)nc(C(C)(C)C)n1` showed a cytotoxicity at 70.5 h of -10.6%.
Compound `CC(C)(C)OC(=O)N1CCC(NC2CC2)CC1` has a cytotoxicity at 70.5 h of -7.1%.
Compound `Cc1noc(C)c1CN(C)Cc1csc(-c2ccccc2F)n1` has a cytotoxicity at 70.5 h of -3.72%.
For `COCc1cc(N(C)Cc2cnccn2)nc(C(C)(C)C)n1`, the cytotoxicity at 70.5 h was -12.2%.
For `COc1cccc(CNc2nc(N3CCOCC3)ns2)c1OC`, the cytotoxicity at 70.5 h was 15.5%.
`O=C(NCC(=O)N1CCCC1Cc1cccc(F)c1)C1CCCC1` (stereo not given) showed a cytotoxicity at 70.5 h of -1.38%.
For `Cc1cc(C)n(CCCNC(=O)NCc2c(C)cc(C)[nH]c2=O)n1`, the cytotoxicity at 70.5 h was 2.42%.
Compound `COC(=O)CC(NC(=O)c1cc(OC)c2c(c1)OCCO2)c1cccs1` (stereo not given) has a cytotoxicity at 70.5 h of -9.89%.
Work on `N#Cc1ccc(S(=O)(=O)NC(=O)c2csc(-c3ccco3)n2)cc1` yielded a cytotoxicity at 70.5 h of -2.89%.
For `COc1ccc2ccccc2c1CNCC1CCS(=O)(=O)C1` (stereo not given), the cytotoxicity at 70.5 h was -8.26%.

Source: ChEMBL document CHEMBL3507680, “University of Dundee, Gates Library screen for HepG2 cell viability”
